Reference: ChEMBL document CHEMBL1201862, “PubChem BioAssay data set” (2004)
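Each compound was tested at five concentrations against cells in 96-well plates for 48 hours. Here, GI50 denotes the concentration required for 50% inhibition of growth.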 The source made the active and inactive calls. Cut-off read from the data, not from the text of the source: active = GI50 up to about 1.1 µM and inactive = higher.

Experiments:
Experiment in all cases: NCI anticancer screen, dose series, 48 h
786-0 = tested on: 786-0
A498 = tested on: A498
A549 = tested on: A549
ACHN = tested on: ACHN
CAKI-1 = tested on: CAKI-1
CCRF-CEM = tested on: CCRF-CEM
COLO 205 = tested on: COLO 205
DLD-1 = tested on: DLD-1
DMS-114 = tested on: DMS-114
DMS-273 = tested on: DMS-273
EKVX = tested on: EKVX
HCC 2998 = tested on: HCC 2998
HCT-116 = tested on: HCT-116
HL-60 = tested on: HL-60
HOP-18 = tested on: HOP-18
HOP-62 = tested on: HOP-62
HOP-92 = tested on: HOP-92
HT-29 = tested on: HT-29
IGROV-1 = tested on: IGROV-1
K562 = tested on: K562
KM-20L2 = tested on: KM-20L2
KM12 = tested on: KM12
LOX IMVI = tested on: LOX IMVI
LXFL 529 = tested on: LXFL 529
M14 = tested on: M14
M19-MEL = tested on: M19-MEL
MOLT-4 = tested on: MOLT-4
Malme-3M = tested on: Malme-3M
NCI-H226 = tested on: NCI-H226
NCI-H23 = tested on: NCI-H23
NCI-H522 = tested on: NCI-H522
OVCAR-3 = tested on: OVCAR-3
OVCAR-4 = tested on: OVCAR-4
OVCAR-5 = tested on: OVCAR-5
OVCAR-8 = tested on: OVCAR-8
RXF 393 = tested on: RXF 393
RXF 631 = tested on: RXF 631
SF-268 = tested on: SF-268
SF-295 = tested on: SF-295
SF-539 = tested on: SF-539
SK-MEL-28 = tested on: SK-MEL-28
SK-MEL-5 = tested on: SK-MEL-5
SK-OV-3 = tested on: SK-OV-3
SN12C = tested on: SN12C
SNB-19 = tested on: SNB-19
SNB-75 = tested on: SNB-75
SNB-78 = tested on: SNB-78
SR = tested on: SR
SW-620 = tested on: SW-620
TK-10 = tested on: TK-10
U-251 = tested on: U-251
UACC-257 = tested on: UACC-257
UACC-62 = tested on: UACC-62
UO-31 = tested on: UO-31
XF498 = tested on: XF498

Measured: GI50

COc1cc(=O)oc(/C=C/C=O)c1C
inactive: 786-0 20.7 µM | A498 > 100 µM | A549 > 100 µM | ACHN 19.2 µM | CAKI-1 33 µM | CCRF-CEM 5.36 µM | COLO 205 16.4 µM | DLD-1 16 µM | DMS-114 12.7 µM | DMS-273 17.2 µM | EKVX 35.7 µM | HCC 2998 17.9 µM | HCT-116 5.21 µM | HL-60 13.5 µM | HOP-18 18 µM | HOP-62 19.5 µM | HOP-92 26.9 µM | HT-29 19.9 µM | IGROV-1 30.4 µM | K562 8.53 µM | KM-20L2 16.8 µM | KM12 21.9 µM | LOX IMVI 5.2 µM | LXFL 529 17.1 µM | M14 17.9 µM | M19-MEL 18.1 µM | MOLT-4 27.5 µM | Malme-3M 21.7 µM | NCI-H226 31.2 µM | NCI-H23 21.9 µM | NCI-H522 19.8 µM | OVCAR-3 19 µM | OVCAR-4 17 µM | OVCAR-5 38.3 µM | OVCAR-8 26.3 µM | RXF 393 18.8 µM | RXF 631 14.7 µM | SF-268 13.6 µM | SF-295 15.8 µM | SF-539 18.7 µM | SK-MEL-28 12.6 µM | SK-MEL-5 20.6 µM | SK-OV-3 27.2 µM | SN12C 8.24 µM | SNB-19 14.8 µM | SNB-75 16.3 µM | SNB-78 > 10 µM | SR 2.79 µM | SW-620 19.4 µM | TK-10 31.2 µM | U-251 14.3 µM | UACC-257 18.9 µM | UACC-62 16 µM | UO-31 20.8 µM | XF498 17 µM
